In ChEMBL document CHEMBL3044830, “Synthesis, characterization, antibacterial, antifungal, and immunomodulating activities of gatifloxacin derivatives” (Med Chem Res, 2010):

Columns and labels:
Proteus mirabilis [1] = assay: Antibacterial activity against Proteus mirabilis assessed as zone of inhibition at 5 to 40 ug/ml after 18 to 24 hr by disc diffusion method relative to gatifloxacin; assay type: functional
Proteus mirabilis [2] = assay: Antibacterial activity against Proteus mirabilis assessed as concentration required to obtain a zone of inhibition of 10 mm after 18 to 24 hr by disc diffusion method; assay type: functional
Proteus mirabilis [3] = assay: Antibacterial activity against Proteus mirabilis assessed as concentration required to obtain a zone of inhibition of 20 mm after 18 to 24 hr by disc diffusion method; assay type: functional
Proteus mirabilis [4] = assay: Antibacterial activity against Proteus mirabilis assessed as concentration required to obtain a zone of inhibition of 5 mm after 18 to 24 hr by disc diffusion method; assay type: functional
Klebsiella pneumoniae [5] = assay: Antibacterial activity against Klebsiella pneumoniae assessed as zone of inhibition at 5 to 40 ug/ml after 18 to 24 hr by disk diffusion method relative to gatifloxacin; assay type: functional
Klebsiella pneumoniae [6] = assay: Antibacterial activity against Klebsiella pneumoniae assessed as concentration required to obtain a zone of inhibition of 20 mm after 18 to 24 hr by disk diffusion method; assay type: functional
Klebsiella pneumoniae [7] = assay: Antibacterial activity against Klebsiella pneumoniae assessed as concentration required to obtain a zone of inhibition of 10 mm after 18 to 24 hr by disk diffusion method; assay type: functional
Shigella flexneri [8] = assay: Antibacterial activity against Shigella flexneri assessed as concentration required to obtain a zone of inhibition of 5 mm after 18 to 24 hr by disk diffusion method; assay type: functional
Escherichia coli [9] = assay: Antibacterial activity against Escherichia coli assessed as concentration required to obtain a zone of inhibition of 20 mm after 18 to 24 hr by disk diffusion method; assay type: functional
Escherichia coli [10] = assay: Antibacterial activity against Escherichia coli assessed as concentration required to obtain a zone of inhibition of 10 mm after 18 to 24 hr by disk diffusion method; assay type: functional
Klebsiella pneumoniae [11] = assay: Antibacterial activity against Klebsiella pneumoniae assessed as concentration required to obtain a zone of inhibition of 5 mm after 18 to 24 hr by disk diffusion method; assay type: functional
Shigella flexneri [12] = assay: Antibacterial activity against Shigella flexneri assessed as zone of inhibition at 5 to 40 ug/ml after 18 to 24 hr by disk diffusion method relative to gatifloxacin; assay type: functional
Shigella flexneri [13] = assay: Antibacterial activity against Shigella flexneri assessed as concentration required to obtain a zone of inhibition of 10 mm after 18 to 24 hr by disk diffusion method; assay type: functional
Shigella flexneri [14] = assay: Antibacterial activity against Shigella flexneri assessed as concentration required to obtain a zone of inhibition of 20 mm after 18 to 24 hr by disk diffusion method; assay type: functional
Escherichia coli [15] = assay: Antibacterial activity against Escherichia coli assessed as zone of inhibition at 5 to 40 ug/ml after 18 to 24 hr by disk diffusion method relative to gatifloxacin; assay type: functional
Staphylococcus aureus [16] = assay: Antibacterial activity against methicillin-resistant Staphylococcus aureus assessed as zone of inhibition at 5 to 40 ug/ml after 18 to 24 hr by disk diffusion method relative to gatifloxacin; assay type: functional
Escherichia coli [17] = assay: Antibacterial activity against Escherichia coli assessed as concentration required to obtain a zone of inhibition of 5 mm after 18 to 24 hr by disk diffusion method; assay type: functional
Staphylococcus aureus [18] = assay: Antibacterial activity against methicillin-resistant Staphylococcus aureus assessed as concentration required to obtain a zone of inhibition of 20 mm after 18 to 24 hr by disk diffusion method; assay type: functional
Staphylococcus aureus [19] = assay: Antibacterial activity against methicillin-resistant Staphylococcus aureus assessed as concentration required to obtain a zone of inhibition of 5 mm after 18 to 24 hr by disk diffusion method; assay type: functional
Bacillus subtilis [20] = assay: Antibacterial activity against Bacillus subtilis assessed as zone of inhibition at 5 to 40 ug/ml after 18 to 24 hr by disk diffusion method relative to gatifloxacin; assay type: functional
Bacillus subtilis [21] = assay: Antibacterial activity against Bacillus subtilis assessed as concentration required to obtain a zone of inhibition of 20 mm after 18 to 24 hr by disk diffusion method; assay type: functional
Bacillus subtilis [22] = assay: Antibacterial activity against Bacillus subtilis assessed as concentration required to obtain a zone of inhibition of 10 mm after 18 to 24 hr by disk diffusion method; assay type: functional
Bacillus subtilis [23] = assay: Antibacterial activity against Bacillus subtilis assessed as concentration required to obtain a zone of inhibition of 5 mm after 18 to 24 hr by disk diffusion method; assay type: functional
Pseudomonas aeruginosa [24] = assay: Antibacterial activity against Pseudomonas aeruginosa assessed as zone of inhibition at 5 to 40 ug/ml after 18 to 24 hr by disk diffusion method relative to gatifloxacin; assay type: functional
Pseudomonas aeruginosa [25] = assay: Antibacterial activity against Pseudomonas aeruginosa assessed as concentration required to obtain a zone of inhibition of 20 mm after 18 to 24 hr by disk diffusion method; assay type: functional
Pseudomonas aeruginosa [26] = assay: Antibacterial activity against Pseudomonas aeruginosa assessed as concentration required to obtain a zone of inhibition of 10 mm after 18 to 24 hr by disk diffusion method; assay type: functional
Pseudomonas aeruginosa [27] = assay: Antibacterial activity against Pseudomonas aeruginosa assessed as concentration required to obtain a zone of inhibition of 5 mm after 18 to 24 hr by disk diffusion method; assay type: functional
Citrobacter [28] = assay: Antibacterial activity against Citrobacter assessed as zone of inhibition at 5 to 40 ug/ml after 18 to 24 hr by disk diffusion method relative to gatifloxacin; assay type: functional
Citrobacter [29] = assay: Antibacterial activity against Citrobacter assessed as concentration required to obtain a zone of inhibition of 20 mm after 18 to 24 hr by disk diffusion method; assay type: functional
Citrobacter [30] = assay: Antibacterial activity against Citrobacter assessed as concentration required to obtain a zone of inhibition of 10 mm after 18 to 24 hr by disk diffusion method; assay type: functional
Citrobacter [31] = assay: Antibacterial activity against Citrobacter assessed as concentration required to obtain a zone of inhibition of 5 mm after 18 to 24 hr by disk diffusion method; assay type: functional
Shigella sp. [32] = assay: Antibacterial activity against Shigella typhi assessed as zone of inhibition after 18 to 24 hr by disc diffusion method relative to gatifloxacin; assay type: functional
Shigella sp. [33] = assay: Antibacterial activity against Shigella typhi assessed as concentration required to obtain a zone of inhibition of 10 mm after 18 to 24 hr by disc diffusion method; assay type: functional
Shigella sp. [34] = assay: Antibacterial activity against Shigella typhi assessed as concentration required to obtain a zone of inhibition of 5 mm after 18 to 24 hr by disc diffusion method; assay type: functional
[35] = Antibacterial activity against Hofmanni bacterium assessed as zone of inhibition after 18 to 24 hr by disc diffusion method relative to gatifloxacin
[36] = Antibacterial activity against Hofmanni bacterium assessed as concentration required to obtain a zone of inhibition of 5 mm after 18 to 24 hr by disc diffusion method
[37] = Antibacterial activity against Hofmanni bacterium assessed as concentration required to obtain a zone of inhibition of 20 mm after 18 to 24 hr by disc diffusion method
[38] = Antibacterial activity against Hofmanni bacterium assessed as concentration required to obtain a zone of inhibition of 10 mm after 18 to 24 hr by disc diffusion method

Question: With `CO/N=C1\CN(c2nc3c(cc2F)c(=O)c(C(=O)O)cn3C2CC2)CC1CN.CS(=O)(=O)O` (stereo not drawn) [GEMIFLOXACIN MESYLATE] as the compound, how does the “inhibition zone (IZ)” value (Proteus mirabilis [1]) read?
Answer: 82.5%

Question: And the Activity (Proteus mirabilis [2])?
Answer: 11 µg/mL

Question: And the Activity (Proteus mirabilis [3])?
Answer: 12 µg/mL

Question: What about the Activity (Proteus mirabilis [4]) of the same compound?
Answer: 10 µg/mL

Question: What about the “inhibition zone (IZ)” value (Klebsiella pneumoniae [5]) of the same compound?
Answer: 84.2%

Question: And the Activity (Klebsiella pneumoniae [6])?
Answer: 12 µg/mL

Question: What about the Activity (Klebsiella pneumoniae [7]) of the same compound?
Answer: 11 µg/mL

Question: What about the Activity (Shigella flexneri [8]) of the same compound?
Answer: 7 µg/mL

Question: And the Activity (Escherichia coli [9])?
Answer: 10 µg/mL

Question: What about the Activity (Escherichia coli [10]) of the same compound?
Answer: 9 µg/mL

Question: And the Activity (Klebsiella pneumoniae [11])?
Answer: 10 µg/mL

Question: What about the “inhibition zone (IZ)” value (Shigella flexneri [12]) of the same compound?
Answer: 61.4%

Question: What about the Activity (Shigella flexneri [13]) of the same compound?
Answer: 8 µg/mL

Question: What about the Activity (Shigella flexneri [14]) of the same compound?
Answer: 13 µg/mL

Question: What about the “inhibition zone (IZ)” value (Escherichia coli [15]) of the same compound?
Answer: 75.72%

Question: What about the “inhibition zone (IZ)” value (Staphylococcus aureus [16]) of the same compound?
Answer: 69.8%

Question: And the Activity (Escherichia coli [17])?
Answer: 7 µg/mL

Question: And the Activity (Staphylococcus aureus [18])?
Answer: 14 µg/mL

Question: And the Activity (Staphylococcus aureus [19])?
Answer: 9 µg/mL

Question: What about the “inhibition zone (IZ)” value (Bacillus subtilis [20]) of the same compound?
Answer: 46.3%

Question: And the Activity (Bacillus subtilis [21])?
Answer: 8 µg/mL

Question: What about the Activity (Bacillus subtilis [22]) of the same compound?
Answer: 7 µg/mL

Question: What about the Activity (Bacillus subtilis [23]) of the same compound?
Answer: 5 µg/mL

Question: And the “inhibition zone (IZ)” value (Pseudomonas aeruginosa [24])?
Answer: 75%

Question: And the Activity (Pseudomonas aeruginosa [25])?
Answer: 10 µg/mL

Question: And the Activity (Pseudomonas aeruginosa [26])?
Answer: 9 µg/mL

Question: What about the Activity (Pseudomonas aeruginosa [27]) of the same compound?
Answer: 8 µg/mL

Question: What about the “inhibition zone (IZ)” value (Citrobacter [28]) of the same compound?
Answer: 42.83%

Question: What about the Activity (Citrobacter [29]) of the same compound?
Answer: 11 µg/mL

Question: And the Activity (Citrobacter [30])?
Answer: 9 µg/mL

Question: What about the Activity (Citrobacter [31]) of the same compound?
Answer: 7 µg/mL

Question: What about the “inhibition zone (IZ)” value (Shigella sp. [32]) of the same compound?
Answer: 75.5%

Question: What about the Activity (Shigella sp. [33]) of the same compound?
Answer: 9 µg/mL

Question: And the Activity (Shigella sp. [34])?
Answer: 8 µg/mL

Question: And the “inhibition zone (IZ)” value [35]?
Answer: 56.6%

Question: And the Activity [36]?
Answer: 5 µg/mL

Question: What about the Activity [37] of the same compound?
Answer: 8 µg/mL

Question: And the Activity [38]?
Answer: 7 µg/mL
